Data published in paper PMC12378621, “Benzo-ring modification on Malaria Box hit MMV008138: effects on antimalarial potency and microsomal stability” (RSC Medicinal Chemistry, 2025).

What was measured:
in vitro = conditions: male, mouse, microsomes; for % remaining, Replicate 1 / Replicate 2: 1 µM
Protocol: Metabolic stability of 1 was studied in pooled male mouse liver microsomes (final concentration 0.5 mg/mL, 5 mM MgCl 2, 100 mM phosphate buffer). The final concentration of test […]
The mixture was pre-warmed 37°C for 5 min before addition of 50 μL of 10 mM NADPH solution at the final concentration of 1 mM and carried out at 37°C. 50 μL of ultra-pure H2O was used instead of NADPH solution in the […]
negative control. […] Drug […]
concentrations were determined using triple quad LC-MS (Table S5).
(1 picture or pasted object on this page, not shown here)

[1] = tested on: P. falciparum (Dd2 strain); assay: Metabolic rescue of parasite growth by isopentenyl diphosphate (IPP) supplementation; format: cell-based, Plasmodium falciparum; conditions: drug at 10 μM
Protocol: (§1) […]. MMV008138 (1) was used as control. The percentage of growth was normalized to that of untreated control parasites in the presence of 0.1% DMSO. Background determinations were made using uninfected erythrocytes. Two or more independent experiments in duplicate were performed. The EC50 values were calculated with GraphPad Prism 9 (GraphPad Software Ltd.) using nonlinear regression curve fitting with variable slope (four parameters) and represent the average and their standard error of the mean (S.E.M.). To assess whether 20a–e specifically targeted the apicoplast, the recovery of growth in the presence of inhibitor and isopentenyl diphosphate (IPP) was performed as described previously.[8] Briefly, parasites were grown in the presence or absence of 200 μM IPP along with a serial dilution (10 μM to 0.01 μM) or single concentration (10 or 20 μM) of drug. […] All conditions were set in 96-well half area plates using highly synchronous ring-stage parasite cultures (100 μL per well at 1% hematocrit and 1% parasitemia) and incubated for 72 h under normal culture conditions. Parasite growth was measured by the SYBR green I assay.

[2] = tested on: P. falciparum (Dd2 strain); assay: ABS P. falciparum growth inhibition, SYBR Green I assay, 72 h endpoint; format: cell-based, Plasmodium falciparum
Protocol: Parasites were maintained in O-positive human erythrocytes (Grifols, Memphis, TN, USA) at 5% hematocrit in RPMI 1640 medium supplemented with 5 g L^−1 Albumax I (Gibco Life Technologies), 2 g L^−1 glucose (Sigma-Aldrich), 2.3 g L^−1 sodium bicarbonate (Sigma-Aldrich), 370 μM hypoxanthine (Sigma-Aldrich), 25 mM HEPES, and 20 mg L^−1 gentamicin (Gibco Life Technologies). The parasites were kept at 37 °C under reduced-oxygen conditions (5% CO2, 5% O2, and 90% N2).
as §1

[3] = % remaining, Replicate 1 / Replicate 2

% remaining, Replicate 1 / Replicate 2 (in vitro; 5 min): 56.5%
% remaining, Replicate 1 / Replicate 2 (in vitro; 10 min): 41.8%
% remaining, Replicate 1 / Replicate 2 (in vitro; 0.25 h): 31.5%
% remaining, Replicate 1 / Replicate 2 (in vitro; 20 min): 28.2%
% remaining, Replicate 1 / Replicate 2 (in vitro; 0.5 h): 25.1%
remaining at 0.5 min, 1 µM (in vitro; [3]): 100%
remaining at 5 min, 1 µM (in vitro; [3]): 61.1%
remaining at 10 min, 1 µM (in vitro; [3]): 42.6%
remaining at 0.25 h, 1 µM (in vitro; [3]): 34.3%
remaining at 20 min, 1 µM (in vitro; [3]): 30.3%
remaining at 0.5 h, 1 µM (in vitro; [3]): 24.8%
loss of growth inhibition potency (EC50) relative to 1 ([2]; Dd2 strain): ≤ 3 fold
EC50 ([2]; Plasmodium falciparum, DD2, Table 2, enantiopure, SYBR Green I, 72 h endpoint, average ± S.E.M, read-out: Dd2 strain P. falciparum growth inhibition EC50): 0.717 ± 0.073 µM
SMILES: O=C(O)[C@@H]1Cc2c([nH]c3c(F)cccc23)[C@@H](c2ccc(Cl)cc2Cl)N1 [Compound 20d]
% recovery (200 μM IPP) [1]: 100%@10 μM
